Measured values published in patent publication US20240016777A1, “COMPOUNDS AND METHODS FOR TREATING VIRAL INFECTIONS” (priority 2020, published 2024).

biological target: SARS-CoV-2 M^pro (Severe acute respiratory syndrome coronavirus 2 (2019-nCoV) (SARS-CoV-2), UniProt P0DTD1); assay: biochemical; conditions: compound at 17 μM, duplicates, 20 min pre-incubation; read-out: Activity (% enzyme activity by fluorescence relative to initial enzyme activity)

Compound	remaining activity at 17 µM [%]
CC(C)=CCC/C(C)=C/Cc1c(-c2ccc(O)cc2O)oc2cc(O)cc(O)c2c1=O [5,7,2′,4′-Tetrahydroxy-3-geranylflavone]	10 to 80

same assay, conditions: read-out: Activity (% enzyme activity by fluorescence relative to initial enzyme activity), compound at 17 μM, duplicates, 20 min pre-incubation

Compound	remaining activity at 17 µM [%]
CC(C)=CCc1cc(C2CC(=O)c3c(O)cc(O)cc3O2)c(CC=C(C)C)c(O)c1O (racemic) [(+/−)-Sigmoidin A]	10 to 80
COc1ccc2c(c1CC=C(C)C)O[C@H](c1ccc(O)cc1O)CC2 (stereo in doubt) [2′,4′-Dihydroxy-7-methoxy-8-prenylflavan]	> 80
COc1cc(O)c(CC=C(C)C)c2c1C(=O)[C@H](O)[C@@H](c1ccc(O)cc1)O2 (stereo in doubt) [3,7,4′-Trihydroxy-5-methoxy-8-prenylflavanone]	> 80
CC(C)=CCc1c(O)ccc([C@H]2COc3c(CC=C(C)C)c(O)cc(O)c3C2=O)c1O (stereo in doubt) [5,7,2′,4′-Tetrahydroxy-8,3′-di(gamma,gamma-dimethylallyl)-isoflavanone]	10 to 80
COc1ccc([C@@H]2CC(=O)c3c(O)cc(O)c(CC=C(C)C)c3O2)cc1O (stereo in doubt) [5,7,3′-Trihydroxy-4′-methoxy-8-prenylflavanone]	> 80
CC(C)=CCc1c(O)cc(O)c2c(=O)c(-c3ccc(O)cc3O)coc12 [2,3-dehydrokievitone]	10 to 80
O=c1c(-c2ccc(O)cc2O)coc2cc(O)cc(O)c12 [2′-hydroxygenistein]	> 80
C=C(C)[C@H](CC=C(C)C)Cc1c(O)cc(OC)c2c1O[C@H](c1ccc(O)cc1OC)CC2=O [2′-methoxykurarinone]	> 80
COc1ccc(-c2oc3c(CC=C(C)C)c(O)cc(O)c3c(=O)c2O[C@@H]2O[C@@H](C)[C@H](O)[C@@H](O)[C@H]2O[C@@H]2O[C@@H](C)[C@H](O)[C@@H](O)[C@H]2O)cc1 [2″-O-Rhamnosylicariside II]	10 to 80
CC(C)=CCc1cc(-c2coc3cc(O)cc(O)c3c2=O)cc(CC=C(C)C)c1O [3′,5′-Diprenylgenistein]	> 80
CC(C)=CCC/C(C)=C/Cc1c(O)ccc(-c2oc3cc(O)cc(O)c3c(=O)c2CC=C(C)C)c1O [3′-Geranyl-3-prenyl-2′,4′,5,7-tetrahydroxyflavone]	10 to 80
CC(C)=CCc1c(O)cc2oc(-c3ccc(O)cc3)cc(=O)c2c1O [4′,5,7-Trihydroxy-6-prenylflavone]	> 80
COc1ccc([C@@H]2CC(=O)c3c(O)cc(O)cc3O2)cc1CC=C(C)C [4′-O-Methyllicoflavanone]	10 to 80
COc1c(-c2cc(O)c(O)c(CC=C(C)C)c2)oc2c(CC=C(C)C)c(O)cc(O)c2c1=O [5,7,3′,4′-Tetrahydroxy-3-methoxy-8,5′-diprenylflavone]	> 80
COc1c(-c2ccc(O)c(O)c2)oc2c(C/C=C(\C)CCC=C(C)C)c(O)cc(O)c2c1=O [5,7,3′,4′-Tetrahydroxy-3-methoxy-8-geranylflavone]	> 80
COc1c(O)cc2oc(-c3ccc(O)c(CC=C(C)C)c3)c(OC)c(=O)c2c1O [5,7,4-Trihydroxy-3,6-dimethoxy-3-prenylflavone]	> 80
COc1c(O)cc2oc(-c3cc(CC=C(C)C)c(O)c(CC=C(C)C)c3)c(OC)c(=O)c2c1O [5,7,4′-Trihydroxy-3,6-dimethoxy-3′,5′-diprenylflavone]	> 80
CC(C)=CCc1cc([C@@H]2CC(=O)c3c(O)cc(O)c(CC=C(C)C)c3O2)cc(CC=C(C)C)c1O [5-Hydroxysophoranone]	> 80
CC(C)=CCC/C(C)=C/Cc1cc(-c2cc(=O)c3c(O)cc(O)cc3o2)c(O)cc1O [5′-Geranyl-5,7,2′,4′-tetrahydroxyflavone]	> 80
COc1c(O)cc2oc(-c3cc(CC=C(C)C)c(O)c(CCC(C)CO)c3)c(OC)c(=O)c2c1O (stereo not shown) [5′-Prenylaliarin]	> 80
CC(C)=CCc1c(O)c(CC=C(C)C)c2occ(-c3ccc(O)cc3)c(=O)c2c1O [6,8-Diprenylgenistein]	10 to 80
